In experiment [1] the target is STAT3 (Mus musculus, UniProt P42227). Briefly: Stat3 DNA-binding activity, electrophoretic mobility shift assay (EMSA) with nuclear extracts. The experiment is classed as biochemical. The method, then: Nuclear extract preparations and electrophoretic mobility shift assay (EMSA) were carried out as previously described (Yang J, et al. (2005) Cancer Res. 65:939-947). […] For direct effect of a test compound on Stat3 DNA-binding activity, nuclear extracts were pre-incubated with the agent for 30 min at room temperature prior to incubation with the radiolabeled probe for 30 min at 30° C. before subjecting to EMSA analysis. […] Cytosolic extract preparation from mammalian cells and luciferase assay previously described (Zhang X, et al. (2010) Biochem Pharmacol 79:1398-1409; Turkson J, et al. (1999) Mol. Cell. Biol. 19:7519-7528; Turkson J, et al. (1998) Mol. Cell. Biol. 18:2545-2552).)
STAT3 (Mus musculus, UniProt P42227), sequence (P42227 2-770 limits assumed): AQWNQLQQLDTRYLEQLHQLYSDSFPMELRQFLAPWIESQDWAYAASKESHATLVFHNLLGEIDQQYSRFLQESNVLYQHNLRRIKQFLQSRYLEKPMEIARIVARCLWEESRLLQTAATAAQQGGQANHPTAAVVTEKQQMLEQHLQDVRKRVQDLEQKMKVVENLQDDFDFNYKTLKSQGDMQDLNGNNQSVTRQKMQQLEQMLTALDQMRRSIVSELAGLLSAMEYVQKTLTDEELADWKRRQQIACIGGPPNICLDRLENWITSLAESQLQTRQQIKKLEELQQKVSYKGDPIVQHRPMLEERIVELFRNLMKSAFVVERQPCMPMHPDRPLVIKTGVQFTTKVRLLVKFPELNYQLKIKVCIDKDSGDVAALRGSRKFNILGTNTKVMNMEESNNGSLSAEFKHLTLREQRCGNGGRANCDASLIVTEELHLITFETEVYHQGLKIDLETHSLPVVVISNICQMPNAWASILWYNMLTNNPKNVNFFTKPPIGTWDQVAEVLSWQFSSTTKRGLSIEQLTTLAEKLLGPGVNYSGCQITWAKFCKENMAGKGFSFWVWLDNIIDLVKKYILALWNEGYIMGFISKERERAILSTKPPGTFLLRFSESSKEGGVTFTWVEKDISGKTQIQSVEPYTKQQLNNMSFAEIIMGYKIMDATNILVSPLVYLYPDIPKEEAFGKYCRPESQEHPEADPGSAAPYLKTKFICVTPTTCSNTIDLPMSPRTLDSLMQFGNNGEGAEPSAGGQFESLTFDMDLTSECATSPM
Background: Mobility shift assays separate free from complexed probe on a gel.

The next experiment relates to OCI-AMI.2 cells. Nature of the experiment: Cell viability, MTS assay. The experiment is classed as cell-based.
For a further experiment, the system named is DU-145 cells. Nature of the experiment: Cell viability, MTS assay. As to conditions: Homo sapiens, DU-145, 72 hours. The experiment is classed as cell-based. The method, then: (§1) To further test activity of these molecules, a whole-cell study involving cancer lines with known abherrant STAT3 expression was conducted. These human cell lines, including prostate cancer (DU145), breast cancer (MDA468), and promyelocytic leukemia (HL-60) were treated with the peptidomimetics and incubated for 72 hours. Disruption of cell viability was measured by MTS assay and IC50 values for the potential inhibitors was determined. OriginPro 8 (Northampton, Mass.) was used to evaluate EC50 using the dose response curve defined as follows:
(§2) [formula] where y is the fraction of death, x is the log of drug concentration. A2 is the top asymptote, A1 is the bottom asymptote, logx0 is the center of the curve, and p is the hill slope.
A general note: Tetrazolium dyes change colour on reduction, which living cells bring about.

For another experiment, the system named is HL60 cells. Briefly: Cell viability, MTS assay. The following applies: Homo sapiens, HL-60, HL60, 72 hours. The experiment is classed as cell-based. The procedure: as §1, §2
The next experiment relates to MDA-468 cells. Briefly: Cell viability, MTS assay. In kind it is cell-based. The following applies: Homo sapiens, MDA-468, 72 hours. The procedure:
as §1, §2

In experiment [2] the target is STAT3 (Homo sapiens (Human), UniProt P40763). Briefly: Fluorescence polarization assay, inhibition of binding to STAT3. The following applies: inhibition of binding to STAT3 in a fluorescence polarization assay; read-out: Ki (FP). The method, then: The fluorescent polarization experiments were performed on an Infinite M1000 (Tecan, Crailsheim, Germany). All assays were performed in the same buffer conditions of 50 mM NaCl, 10 mM Hepes, pH 7.5, 1 mM EDTA, and 2 mM dithiothreitol. Fluorescent-labelled peptides were kept at a final concentration of 10nM in buffered solution. […] of labelled peptides were added to […] of a 300 nM STAT3 protein solution (provided by SignalChem in 50 mM Tris-HCl, pH 7.5, 150 mM NaCl, 0.25 mM DTT, 0.1 mM PMSF, 25% glycerol and stored at −80° C.). Inhibitory molecules were dissolved in pure DMSO and diluted using buffer solution to produce four final concentrations ([…]). 7.5 μL of the inhibitory molecule solution was mixed with the STAT3 protein and labelled peptide solution in black 384-flat well microplates (Coming), and incubated for 15-30 minutes. The M1000 performed a shaking cycle and then read the plates. IC50′s were derived from the output using the curve-fitting software OriginPro 8 (Northampton, MA). The FP data was modelled by the following equation:
[formula] where X was the concentration of inhibitor and ρwas the corresponding fluorescence at that concentration. The free parameter was half the maximal inhibitory concentration (IC50) and the limiting values was the maximal measured fluorescence polarization (ρ1) and the minimal fluorescence polarization (ρ2). Origin curve fitting software utilizes the Levenberg-Marquardt algorithm and reduced chi-square criterion for convergence. The inhibitor dissociation constant, Ki, was calculated from the derived IC50 values, as per the following formula: […]
Further details of the fluorescence polarization assay are as described previously (Zhang X, et al. (2010) A novel small-molecule disrupts Stat3 SH2domainphosphotyrosine interactions and Stat3-dependent tumor processes. Biochem Pharmacol 79: 1398-1409).

A further experiment has as its system MV-4-11 cells. Nature of the experiment: Cell viability in cell lines with constitutive activation of STAT5 (Almar Blue). The experiment is classed as cell-based. The method, then:
(§3) To determine whether STAT5 inhbitors could be cytotoxic in cell lines that have constitutive activation of STAT5, the cell lines K562 and MV-4-11 were cultured at concentration 1×10^5, to insure that the cells are at the exponential stage of growth, and treated with the different synthesized molecules at concentrations of 10, 20 and 40 μM. Viability were determined using Almar Blue (Invitrogen) in 96-well plate over 3 consecutive days. Fluorescence was quantified using Spectra Max M5 (Molecular Devices).

For the next experiment, the system named is K562 cells. The description is as above. In kind it is cell-based. The method, then:
as §3

The mark [3] stands for this setting: inhibition of STAT3 activity in an EMSA.

We go through 10 molecules from patent publication US10196373B2, “Substituted 2-hydroxy-4-(2-(phenylsulfonamido)acetamido)benzoic acid analogs as inhibitors of STAT protein” (University of Central Florida Research Foundation, Inc., priority 2010, dated 2019).

Structures are written as SMILES. Read-outs that look alike come from different tables or passages of the source.

STAT3 (Homo sapiens (Human), UniProt P40763), sequence (P40763 whole entry): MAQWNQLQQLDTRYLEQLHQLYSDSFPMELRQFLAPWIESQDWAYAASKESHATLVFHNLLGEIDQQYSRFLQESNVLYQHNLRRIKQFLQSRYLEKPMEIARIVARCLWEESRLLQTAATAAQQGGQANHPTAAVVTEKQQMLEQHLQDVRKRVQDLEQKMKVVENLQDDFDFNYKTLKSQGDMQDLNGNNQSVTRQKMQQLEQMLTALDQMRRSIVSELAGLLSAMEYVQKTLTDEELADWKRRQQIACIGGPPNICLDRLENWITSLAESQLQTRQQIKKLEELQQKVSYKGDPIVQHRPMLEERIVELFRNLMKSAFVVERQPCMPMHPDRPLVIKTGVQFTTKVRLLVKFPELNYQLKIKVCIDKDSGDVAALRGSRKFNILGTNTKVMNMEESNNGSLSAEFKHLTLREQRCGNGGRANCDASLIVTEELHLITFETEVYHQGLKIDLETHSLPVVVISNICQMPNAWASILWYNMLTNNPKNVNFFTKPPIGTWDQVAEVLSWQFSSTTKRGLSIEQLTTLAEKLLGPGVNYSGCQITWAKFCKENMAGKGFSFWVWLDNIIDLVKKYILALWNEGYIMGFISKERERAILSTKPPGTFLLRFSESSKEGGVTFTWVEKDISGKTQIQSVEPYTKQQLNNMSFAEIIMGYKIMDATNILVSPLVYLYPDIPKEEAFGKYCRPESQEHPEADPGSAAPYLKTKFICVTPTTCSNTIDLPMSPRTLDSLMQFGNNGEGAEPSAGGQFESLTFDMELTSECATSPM

As to `Cc1ccc(S(=O)(=O)N(C)CC(=O)N(Cc2ccc(C3CCN(S(=O)(=O)c4ccc(C#N)cc4)CC3)cc2)c2ccc(C(=O)O)c(O)c2)cc1` [Compound 27KG, 4-(N-(4-(1-((4-cyanophenyl)sulfonyl)piperidin-4-yl)benzyl)-2-(N,4-dimethylphenyl-sulfonamido)acetamido)-2-hydroxybenzoic acid], the IC50 at STAT3 [1] (setting [3]) was 50 ± 15 µM; in the experiment on OCI-AMI.2 cells, over 100 µM; with DU-145 cells, over 100 µM; in the experiment on HL60 cells, 83.1 ± 13.5 µM; in the experiment on MDA-468 cells, 94.9 ± 8.8 µM. On STAT3 [2], the Ki worked out at 21.5 ± 2.2 µM.

Take `Cc1ccc(S(=O)(=O)N(C)CC(=O)N(Cc2ccc(-c3ccc(-c4ccc(C(N)=O)cc4)cc3)cc2)c2ccc(C(=O)O)c(O)c2)cc1` [Compound 27NH, 4-(N-((4″-carbamoyl-[1,1′:4′,1″-terphenyl]-4-yl)methyl)-2-(N,4-dimethylphenylsulfonamido)acetamido)-2-hydroxybenzoic acid]: the half-inhibitory concentration (IC50) at STAT3 [1] amounted to 43 ± 1.3 µM. For the same molecule, on STAT3 [2], the inhibition constant (Ki) was 16.7 ± 1.7 µM.

For `COC(=O)c1cccc(-c2ccc(-c3ccc(CN(C(=O)CN(C)S(=O)(=O)c4ccc(C)cc4)c4ccc(C(=O)O)c(O)c4)cc3)cc2)c1` [Compound 27na], the IC50 amounted to 35.1 ± 19.4 µM in the experiment on OCI-AMI.2 cells; 24 ± 2 µM in the experiment on MV-4-11 cells (Homo sapiens, MV4-11); 24 ± 3 µM in the experiment on K562 cells (Homo sapiens); 81.5 ± 8 µM in the experiment with DU-145 cells; 33.2 ± 9.2 µM with HL60 cells; 29 ± 2.3 µM in the experiment with MDA-468 cells.

With `CN(CC(=O)N(Cc1ccc(C2CCCCC2)cc1)c1ccc(C(=O)O)c(O)c1)S(=O)(=O)c1ccc2ccccc2c1` [Compound 45D, 4-(N-(4-cyclohexylbenzyl)-2-(N-methylnaphthalene-2-sulfonamido)acetamido)-2-hydroxy-benzoic acid], the half-inhibitory concentration (IC50) on STAT3 [1] (setting [3]) stood at 79.2 ± 11.2 µM; with OCI-AMI.2 cells, 93.5 ± 32.2 µM; in the experiment with DU-145 cells, 81 ± 39.3 µM; in the experiment with HL60 cells, 99.8 ± 15.6 µM; in the experiment with MDA-468 cells, 45.4 ± 23.2 µM.

For the molecule `CN(CC(=O)N(Cc1ccc(C2CCCCC2)cc1)c1ccc(C(=O)O)c(O)c1)S(=O)(=O)c1cccc2ccccc12` [Compound 45E, 4-(N-(4-cyclohexylbenzyl)-2-(N-methylnaphthalene-1-sulfonamido)acetamido)-2-hydroxy-benzoic acid], the IC50 stood at 28.8 ± 2 µM at STAT3 [1] (setting [3]); 33.3 ± 19.8 µM in the experiment on OCI-AMI.2 cells; 74.5 ± 30.2 µM in the experiment on DU-145 cells; 76.9 ± 50.5 µM in the experiment with HL60 cells; 46.5 ± 12.4 µM in the experiment with MDA-468 cells. Moreover, on STAT3 [2], the Ki is 26.5 ± 0.4 µM.

Consider `CN(CC(=O)N(Cc1ccc(C2CCCCC2)cc1)c1ccc(C(=O)O)c(O)c1)S(=O)(=O)c1cccc2cccnc12` [Compound 45F, 4-(N-(4-cyclohexylbenzyl)-2-(N-methylquinoline-8-sulfonamido)acetamido)-2-hydroxy-benzoic acid], for which the half-maximal inhibitory concentration (IC50) on STAT3 [1] (setting [3]) is 24.6 ± 3.4 µM; with OCI-AMI.2 cells it was over 100 µM; in the experiment with DU-145 cells, over 100 µM; in the experiment with HL60 cells, over 100 µM; in the experiment on MDA-468 cells, over 100 µM. The Ki on STAT3 [2] was found to be 41 ± 0.4 µM.

Consider `Cc1cc(C)c(S(=O)(=O)N(C)CC(=O)N(Cc2ccc(C3CCCCC3)cc2)c2ccc(C(=O)O)c(O)c2)c(C)c1` [Compound 45b, 4-(N-(4-cyclohexylbenzyl)-2-(N,2,4,6-tetramethylphenylsulfonamido)acetamido)-2-hydroxy-benzoic acid], for which the IC50 is 65.4 ± 13 µM in the experiment with OCI-AMI.2 cells; over 80 µM in the experiment on MV-4-11 cells (Homo sapiens, MV4-11); 80 ± 18 µM in the experiment on K562 cells (Homo sapiens); 44.5 ± 16 µM in the experiment with DU-145 cells; 40.4 ± 20.2 µM with HL60 cells; 22.6 ± 8.3 µM in the experiment with MDA-468 cells.

Take `CN(CC(=O)N(Cc1ccc(C2CCCCC2)cc1)c1ccc(C(=O)O)c(O)c1)S(=O)(=O)c1ccc(-c2ccccc2)cc1` [Compound 45c, 4-(N-(4-cyclohexylbenzyl)-2-(N-methylbiphenyl-4-ylsulfonamido)acetamido)-2-hydroxy-benzoic acid]: the IC50 was determined as 95.4 ± 33.7 µM in the experiment on OCI-AMI.2 cells; 17 ± 1 µM in the experiment with MV-4-11 cells (Homo sapiens, MV4-11); 42 ± 16 µM in the experiment on K562 cells (Homo sapiens); 80 ± 31.6 µM in the experiment with DU-145 cells; 74.8 ± 28.2 µM with HL60 cells; 47.4 ± 6.2 µM in the experiment on MDA-468 cells.

`Cc1ccc(S(=O)(=O)N(CC(=O)N(Cc2ccc(C3CCCCC3)cc2)c2ccc(C(=O)O)c(O)c2)C(=O)OC(C)(C)C)cc1` [SF-1-087]: the 50% inhibitory concentration (IC50) with MV-4-11 cells is 51 ± 7 µM; in the experiment on K562 cells, over 80 µM.

On to `Cc1ccc(S(=O)(=O)N(CC(=O)N(Cc2ccccc2)c2ccc(C(=O)O)c(O)c2)C(=O)OC(C)(C)C)cc1` [SF-1-088], for which the half-maximal inhibitory concentration (IC50) in the experiment with MV-4-11 cells is over 80 µM; with K562 cells, 77 ± 5 µM.

As usually defined, the IC50 is the concentration that inhibits the measured activity by half. By Ki is commonly meant a measure of affinity in units of concentration, obtained from inhibition or displacement.
